This note sets out measurements from patent US20250282895A1, “PHARMACEUTICAL COMPOSITIONS OF CHEMOTHERAPEUTIC AGENTS BASED ON BETA-S[…]-AMINO ACID DERIVATIVES” (priority 2021, published 2025).

This series in a line: Stability of Compound (1c) hydrochloride salt/SBE6.5-β-CD guest-host inclusion complex in 0.9% saline (HPLC/UV). The class given is physicochemical. To be noted: SBE6.5-β-CD complex in 0.9% saline. The procedure:
A stock solution was prepared by dissolving 68.8 mg (0.206 mmol) of Compound (1c) (free base) in about 20.0 mL of a mixture of acetonitrile/water (1:1, v/v) with vortexing in a clean graduated glass cylinder (25 mL). A solution of 0.407 mL of 0.5072 M aq. HCl (0.206 mmol, 1.0 eq.; Fluka, 318957) was added with gentle vortexing, and the resulting clear solution was further diluted to 25.0 mL with a mixture of acetonitrile/water (1:1, v/v) with gentle vortexing to afford a stock solution of Compound (1c) as a mono-HCl salt of a concentration 2.75 mg/mL. This solution was filtered through a 0.45 μm nylon syringe filter into a clean 50 mL Erlenmeyer flask. Aliquots of 2.0 mL (2× 1.0 mL; 2× 2.75 mg) of the stock solution were rapidly pipetted into clean 12 mL scintillation vials. The aliquots were frozen at −78° C. (dry ice/acetone bath) and lyophilized at about 100 mTorr for about 16 hours to provide test vials each containing 6.1 mg (0.0165 mmol) of Compound (1c) mono-hydrochloride salt (mono-HCl salt) (corresponding to 5.5 mg of Compound (1c)),free base, as a colorless powdery solid.
A cyclodextrin derivative (270 mg; SBE6.5-β-CD, Captisol®, average MW 2,163 g/mol) was added to 6.1 mg (0.0165 mmol) of(S)-3-amino-4-(5-(bis(2-chloroethyl)amino)-2-methylphenyl) butanoic acid mono hydrochloride salt (Compound (1c) mono-HCl salt) in a 12 mL glass vial and dissolved in 3 mL to 4 mL of double-distilled water by vortexing for about 30 sec to provide a clear, colorless solution. The solution was filtered through a 0.45 μm nylon syringe filter into a 12 mL glass vial. The filter was washed twice with double-distilled water (each about 0.5 mL) to provide a clear colorless solution having a pH from 4.4 to 4.7. The filtered solution was frozen at −78° C. (dry ice/acetone bath) and the solvent was lyophilized off at about 100 mTorr for about 16 hours to provide a colorless powdery solid consisting of 6.1 mg (0.0165 mmol) of Compound (1c) mono-HCl salt (corresponding to 5.5 mg of Compound (1c) as free base) and 270 mg of SBE6.5-β-CD, Captisol®). Several vials with the cyclodextrin derivative/Compound (1c) mono-HCl salt guest-host inclusion complex were prepared according to this method.
The cyclodextrin derivative/Compound (1c) mono-HCl salt guest-host inclusion complex was reconstituted by dissolving the guest-host inclusion complex in 0.86 mL of 0.9% saline to provide 1.0 mL of a solution having a nominal concentration of 6.1 mg/mL of Compound (1c) mono-HCl salt guest-host inclusion complex which equates to a nominal concentration of 5.5 mg/mL of the Compound (1c)) guest-host inclusion complex.
A 0.5 mL aliquot of this solution was diluted with 5.0 mL of 0.9% saline, and the pH adjusted with 5 μL of a saturated aqueous NaHCO3 solution to provide 5.5 mL of a clear, colorless solution having a nominal concentration of 0.5 mg/mL Compound (1c) compound and a pH from 5.3 to 5.5.
A 1.0 mL aliquot of the reconstituted solution was diluted with 4.5 mL of 0.9% saline, and the pH was adjusted with about 10 μL of a saturated aqueous NaHCO3 solution to provide 5.5 mL of a clear, colorless solution having a nominal concentration of 1.0 mg/mL of Compound (1c) and a pH of 5-6.
A 1.0 mL aliquot of the reconstituted solution was diluted with 1.75 mL of 0.9% saline, and the pH was adjusted with about 10 μL of a saturated aqueous NaHCO3 solution to provide 2.75 mL of a clear, colorless solution having a nominal concentration of 2.0 mg/mL of Compound (1c) and a pH of 5-6.
The solutions were placed in glass vials and stored at either room temperature (about 25° C.) or refrigerated (about 0° C.), and the amount of Compound (1c) was measured at intervals using analytical high pressure liquid chromatography coupled to a UV detector (HPLC/UV) as described in Example 4.

The structures appear in SMILES notation. Where a name gives a salt, the structure may show the parent alone.

On to `Cc1ccc(N(CCCl)CCCl)cc1C[C@H](N)CC(=O)O` [Compound (1c)•HCl, (S)-3-amino-4-(5-(bis(2-chloroethyl)amino)-2-methylphenyl) butanoic acid mono hydrochloride salt], for which the “Compound (1c) (% AUC)” value by setting is: (nominal 0.125 mg/mL, 0° C., 31 hours) 93 % AUC; (nominal 0.125 mg/mL, 25° C., 2 hours) 98 % AUC; (nominal 0.5 mg/mL, 0° C., 9 hours) 99 % AUC; (nominal 0.5 mg/mL, 25° C., 2 hours) 97 % AUC; (nominal 1.0 mg/mL, 0° C., 31 hours) 100 % AUC; (nominal 1.0 mg/mL, 25° C., 2 hours) 91 % AUC. Also, the “Compound (1c) (% AUC)” value is, setting by setting: (nominal 2.0 mg/mL, 0° C., 31 hours) 91 % AUC; (nominal 2.0 mg/mL, 25° C., 2 hours) 99 % AUC.
